Source: patent US4668672A, “Feed compositions containing pyridylalkylhydrazides” (SmithKline Beckman Corporation, priority 1985, dated 1987)
“And” between values parts separate entries of the source, which are not always exact repeats. Equal values may be shown once. Read-outs that look alike come from different tables or passages of the source.

How the values were obtained:
Chick growth study = type: in vivo, broiler chicks; conditions: for response vs control in vivo at 40 ppm / response vs control in vivo at 50 ppm / response vs control in vivo at 10 ppm / response vs control in vivo at 49 ppm: Gallus gallus, feed or water, 408 h; for response vs control in vivo at 40 ppm: 40 ppm in feed; for response vs control in vivo at 50 ppm: 50 ppm in feed; for feed conversion / weight gain: chickens; for response vs control in vivo at 10 ppm: 10 ppm in feed; for response vs control in vivo at 49 ppm: 49 ppm in feed
Method: 512 Day old broiler chicks, selected for weight, health and sex, are housed in an environmentally controlled room with temperature at 37.7° and humidity at 40%. Chicks are fed ad libitum. Water is offered ad libitum. A corn or, preferably, rye basal ration is fed during the acclimation period (days 1 and 2), then, mixed with the compound under test or used as a control on days 3-17. Either 8 or 16 chicks are used for each test or control group.

[1] = tested on: swine ileal or cecal inoculum (filtrate of cannula material); assay: In vitro swine procedure (incubation of inoculum from cannulated swine, in vitro fistula procedure); parameters: species or system swine (Yorksire barrow)
[2] = days 3-17, read-out: Feed Gain (3-17 day)
[3] = days 3-17, read-out: Weight (17 day)
[4] = 166.67 ppm, 5 hours at 37°, blank control = 100%
[5] = 1.67 ppm, 5 hours at 37°, blank control = 100%
[6] = 16.67 ppm, 5 hours at 37°, blank control = 100%
[7] = 116.67 ppm, 5 hours at 37°, blank control = 100%
[8] = 50.0 (unit not given) in feed, days 3-17

Question: Which response vs control in vivo at 40 ppm (Chick growth study; [2]) does the source give for `COC(=O)NN=Cc1ccncc1` here?
Answer: 102%

Question: What about the response vs control in vivo at 40 ppm (Chick growth study; [3]) of the same compound?
Answer: 96.9%

Question: For `COC(=O)NN=Cc1cccnc1`, which response vs control in vivo at 50 ppm (Chick growth study; [2]) is on record?
Answer: 102%

Question: And the response vs control in vivo at 50 ppm (Chick growth study; [3])?
Answer: 98.4%

Question: With “3-azabicyclo[3.2.2]nonane-3-carbothioic acid 2-[1-(2-pyridyl)ethyl]hydrazide” as the compound, how does the feed conversion (Chick growth study; fed at 50 ppm) read?
Answer: better feed conversion

Question: And the weight gain (Chick growth study; fed at 50 ppm)?
Answer: increased weight gain

Question: For `CC(=NNC(=S)N1CCCCCC1)c1ccccn1` [Compound 10], which response vs control in vivo at 10 ppm (Chick growth study; [2]) is on record?
Answer: 92.3%

Question: What about the response vs control in vivo at 10 ppm (Chick growth study; [3]) of the same compound?
Answer: 110%

Question: And the response vs control in vivo at 50 ppm (Chick growth study; [2])?
Answer: 80.6%

Question: And the response vs control in vivo at 50 ppm (Chick growth study; [3])?
Answer: 103%

Question: Which “LYS (lysine)” value [1, 4] does the source give for `CC(=NNC(=S)N1CCCCC1)c1ccccn1` [drawing 2] here?
Answer: 23 % of Control Values and 18 % of Control Values

Question: What about the “VFA (total of volatile fatty acids)” value [1, 4] of the same compound?
Answer: 63 % of Control Values

Question: Which “LYS (lysine)” value [1, 5] does the source give for `COC(=O)NN=C(C)c1ccccn1` [drawing 3] here?
Answer: 70 % of Control Values

Question: What about the “LYS (lysine)” value [1, 6] of the same compound?
Answer: 134 % of Control Values

Question: And the “VFA (total of volatile fatty acids)” value [1, 6]?
Answer: 94 % of Control Values

Question: What about the “LYS (lysine)” value [1, 4] of the same compound?
Answer: 99 % of Control Values

Question: And the “VFA (total of volatile fatty acids)” value [1, 4]?
Answer: 88 % of Control Values

Question: With `COC(=O)NN=Cc1ccccn1` [drawing 4] as the compound, how does the “LYS (lysine)” value [1, 5] read?
Answer: 65 % of Control Values

Question: What about the “VFA (total of volatile fatty acids)” value [1, 5] of the same compound?
Answer: 90 % of Control Values

Question: And the “LYS (lysine)” value [1, 6]?
Answer: 140 % of Control Values

Question: What about the “VFA (total of volatile fatty acids)” value [1, 6] of the same compound?
Answer: 104 % of Control Values

Question: What about the “LYS (lysine)” value [1, 4] of the same compound?
Answer: 109 % of Control Values

Question: What about the “VFA (total of volatile fatty acids)” value [1, 4] of the same compound?
Answer: 109 % of Control Values

Question: Which “GLU (glucose)” value [1, 4] does the source give for `CC(=NNC(N)=S)c1ccccn1` [drawing 5] here?
Answer: 147 % of Control Values

Question: What about the “LAC (L lactic acid)” value [1, 4] of the same compound?
Answer: 88 % of Control Values

Question: And the “LYS (lysine)” value [1, 4]?
Answer: 137 % of Control Values

Question: And the “VFA (total of volatile fatty acids)” value [1, 4]?
Answer: 43 % of Control Values

Question: Which “VFA (total of volatile fatty acids)” value [1] does the source give for `CC(=NNC(=S)N1CC2CCC(CC2)C1)c1ccccn1` [drawing 6] here?
Answer: 97 % of Control Values

Question: And the “LYS (lysine)” value [1, 4]?
Answer: 107 % of Control Values

Question: With `CSC(=S)NN=C(C)c1ccccn1` [drawing 7] as the compound, how does the “GLU (glucose)” value [1, 4] read?
Answer: 95 % of Control Values

Question: What about the “LAC (L lactic acid)” value [1, 4] of the same compound?
Answer: 113 % of Control Values

Question: And the “LYS (lysine)” value [1, 4]?
Answer: 103 % of Control Values

Question: What about the “VFA (total of volatile fatty acids)” value [1, 4] of the same compound?
Answer: 89 % of Control Values

Question: For `CC(=NNC(=S)N1CC2CCC(CC2)C1)c1ccccn1` [drawing 8], which response vs control in vivo at 50 ppm (Chick growth study; [2]) is on record?
Answer: 80.6%

Question: What about the response vs control in vivo at 50 ppm (Chick growth study; [3]) of the same compound?
Answer: 103%

Question: Which results are given for `CC(=NNC(=S)N1CCCCC1)c1ccccn1` [drawing 9]?
Answer: response vs control in vivo at 10 ppm (Chick growth study; [2]): 92.3%; response vs control in vivo at 10 ppm (Chick growth study; [3]): 110%; response vs control in vivo at 50 ppm (Chick growth study; [2]): 80.6%; response vs control in vivo at 50 ppm (Chick growth study; [3]): 103%

Question: Which response vs control in vivo at 50 ppm (Chick growth study; [2]) does the source give for `COC(=O)NN=Cc1ccccn1` [drawing 12] here?
Answer: 86.4%

Question: And the response vs control in vivo at 50 ppm (Chick growth study; [3])?
Answer: 119%

Question: With `COC(=O)NN=C(C)c1ccccn1` [drawing 13] as the compound, how does the response vs control in vivo at 50 ppm (Chick growth study; [2]) read?
Answer: 94%

Question: And the response vs control in vivo at 50 ppm (Chick growth study; [3])?
Answer: 110%

Question: For `CC(=NNC(N)=S)c1ccccn1` [drawing 14], which response vs control in vivo at 50 ppm (Chick growth study; [2]) is on record?
Answer: 91.2%

Question: What about the response vs control in vivo at 50 ppm (Chick growth study; [3]) of the same compound?
Answer: 107%

Question: Which response vs control in vivo at 49 ppm (Chick growth study; [2]) does the source give for `CC(=NNC(=S)N1CC2CCC(CC2)C1)c1ccccn1` [drawing 15] here?
Answer: 84.1%

Question: And the response vs control in vivo at 49 ppm (Chick growth study; [3])?
Answer: 102%

Question: Which results are given for `CSC(=S)NN=C(C)c1ccccn1` [drawing 16]?
Answer: response vs control in vivo at 40 ppm (Chick growth study; [2]): 86.6%; response vs control in vivo at 40 ppm (Chick growth study; [3]): 72.8%

Question: What does the source list for `CC(=NNC(=S)N1CCCCCC1)c1ccccn1` [hexahydro-1H-azepine-1-carbothioic acid [1-(2-pyridinyl)-ethylidinyl]hydrazide]?
Answer: feed conversion (Chick growth study; fed at 10 and 50 ppm): better feed conversion; weight gain (Chick growth study; fed at 10 and 50 ppm): increased weight gain

Question: For Virginiamycin [reference compound], which “GLU (glucose)” value [1] is on record?
Answer: 190 % of Control Values

Question: And the “LAC (L lactic acid)” value [1, 7]?
Answer: 17 % of Control Values

Question: And the “LYS (lysine)” value [1, 7]?
Answer: 171 % of Control Values

Question: What about the “VFA (total of volatile fatty acids)” value [1, 7] of the same compound?
Answer: 25 % of Control Values

Question: What about the “Feed Gain (3-17 day)” value (Chick growth study; [8]) of the same compound?
Answer: 85.0 % of Control

Question: And the “Weight (17 day)” value (Chick growth study; [8])?
Answer: 118.9 % of Control
